Measurements as given in ChEMBL document CHEMBL5528008, “Design and synthesis of the first PARP-1 and proteasome dual inhibitors to treat breast cancer” (Eur J Med Chem, 2024).
Values belong to the compound of their own block, whether it stands above or below them. Active and inactive are the calls of the source. The calls are words filed in the database; no cut-off is given here.

How the values were obtained:
BT-549 [1] = assay: Cytotoxicity against human BT-549 cells assessed as inhibition of cell growth incubated for 72 hrs by MTT assay; format: functional, cell-based; conditions: BT-549, 72 h
MCF7 [2] = assay: Cytotoxicity against human MCF7 cells assessed as inhibition of cell growth incubated for 72 hrs by MTT assay; format: functional, cell-based; conditions: MCF7, 72 h
MDA-MB-231 [3] = assay: Cytotoxicity against human MDA-MB-231 cells assessed as inhibition of cell growth incubated for 72 hrs by MTT assay; format: functional, cell-based; conditions: MDA-MB-231, 72 h
BT-549 [4] = assay: Induction of DNA damage in human BT-549 cells assessed as upregulation of gamma-H2AX level at 0.5 uM incubated for 48 hrs by immunoblotting analysis; format: functional, cell-based
BT-549 [5] = assay: Induction of DNA damage in human BT-549 cells assessed as upregulation of gamma-H2AX level at 1 uM incubated for 48 hrs by immunoblotting analysis; format: functional, cell-based
BT-549 [6] = assay: Synergistic antiproliferative activity against human BT-549 cells assessed as synergistic score in presence of Ixazomib; format: functional
[7] = biological target: T1, Poly [ADP-ribose] polymerase 1 (Homo sapiens, UniProt P09874); assay: Inhibition of PARP-1 (unknown origin) using Femto-ECL as substrate preincubated for 2.7 hrs followed by substrate addition by chemiluminescence assay
T1 sequence (P09874 whole entry): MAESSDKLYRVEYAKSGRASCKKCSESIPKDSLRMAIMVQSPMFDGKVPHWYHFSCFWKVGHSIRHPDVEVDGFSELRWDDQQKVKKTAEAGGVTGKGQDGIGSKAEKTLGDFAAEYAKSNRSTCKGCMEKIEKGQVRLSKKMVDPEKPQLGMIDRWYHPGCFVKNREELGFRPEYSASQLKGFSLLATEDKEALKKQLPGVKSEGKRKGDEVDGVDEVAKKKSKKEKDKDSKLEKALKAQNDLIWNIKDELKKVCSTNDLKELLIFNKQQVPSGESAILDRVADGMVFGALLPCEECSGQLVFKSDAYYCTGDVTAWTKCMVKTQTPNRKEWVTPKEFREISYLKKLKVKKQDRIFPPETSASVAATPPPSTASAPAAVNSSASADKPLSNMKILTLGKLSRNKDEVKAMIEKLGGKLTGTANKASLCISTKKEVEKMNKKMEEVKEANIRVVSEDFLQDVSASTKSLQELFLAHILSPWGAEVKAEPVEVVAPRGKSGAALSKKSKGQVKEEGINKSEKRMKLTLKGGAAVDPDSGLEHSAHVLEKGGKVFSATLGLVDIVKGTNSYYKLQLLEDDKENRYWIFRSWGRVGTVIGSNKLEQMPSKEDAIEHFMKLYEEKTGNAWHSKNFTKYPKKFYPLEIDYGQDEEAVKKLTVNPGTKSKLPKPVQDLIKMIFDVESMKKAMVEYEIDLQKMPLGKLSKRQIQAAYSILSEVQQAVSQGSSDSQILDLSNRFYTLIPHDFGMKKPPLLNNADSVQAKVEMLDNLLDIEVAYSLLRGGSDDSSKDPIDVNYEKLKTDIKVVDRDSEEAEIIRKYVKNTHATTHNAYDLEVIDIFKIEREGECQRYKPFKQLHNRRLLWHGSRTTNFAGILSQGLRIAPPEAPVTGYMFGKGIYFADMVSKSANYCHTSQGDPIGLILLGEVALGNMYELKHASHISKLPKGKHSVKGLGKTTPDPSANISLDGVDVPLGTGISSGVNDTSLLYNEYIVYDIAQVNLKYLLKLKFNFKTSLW

20S proteasome = assay: Inhibition of 20S proteasome (unknown origin) using […] as substrate; format: protein-complex assay, Homo sapiens
[8] = Antiproliferative activity against human COV362 cells assessed as fold change in inhibition of cell growth at 0.3 to 1.2 uM incubated for 72 hrs by MTT assay; format: functional; conditions: dose 0.3-1.2 µM
ES-2 = assay: Antiproliferative activity against human ES2 cells assessed as fold change in inhibition of cell growth at 0.3 to 1.2 uM incubated for 72 hrs by MTT assay; format: functional; conditions: dose 0.3-1.2 µM
HEY = assay: Antiproliferative activity against human HEY cells assessed as fold change in inhibition of cell growth at 0.3 to 1.2 uM incubated for 72 hrs by MTT assay; format: functional; conditions: dose 0.3-1.2 µM
SK-OV-3 = assay: Antiproliferative activity against human SK-OV-3 cells assessed as fold change in inhibition of cell growth at 0.3 to 1.2 uM incubated for 72 hrs by MTT assay; format: functional; conditions: dose 0.3-1.2 µM
NCI-H1299 = assay: Antiproliferative activity against human NCI-H1299 cells assessed as fold change in inhibition of cell growth at 0.3 to 1.2 uM incubated for 72 hrs by MTT assay; format: functional; conditions: dose 0.3-1.2 µM
A549 = assay: Antiproliferative activity against human A549 cells assessed as fold change in inhibition of cell growth at 0.3 to 1.2 uM incubated for 72 hrs by MTT assay; format: functional; conditions: dose 0.3-1.2 µM
PC-3 = assay: Antiproliferative activity against human PC-3 cells assessed as fold change in inhibition of cell growth at 0.3 to 1.2 uM incubated for 72 hrs by MTT assay; format: functional; conditions: dose 0.3-1.2 µM
BT-549 [9] = assay: Antiproliferative activity against human BT-549 cells assessed as fold change in inhibition of cell growth at 0.3 to 1.2 uM incubated for 72 hrs by MTT assay; format: functional; conditions: dose 0.3-1.2 µM
MCF7 [10] = assay: Antiproliferative activity against human MCF7 cells assessed as fold change in inhibition of cell growth at 0.3 to 1.2 uM incubated for 72 hrs by MTT assay; format: functional; conditions: dose 0.3-1.2 µM
MDA-MB-231 [11] = assay: Antiproliferative activity against human MDA-MB-231 cells assessed as fold change in inhibition of cell growth at 0.3 to 1.2 uM incubated for 72 hrs by MTT assay; format: functional; conditions: dose 0.3-1.2 µM
[12] = biological target: T1, Poly [ADP-ribose] polymerase 1; assay: Inhibition of PARP-1 in human BT-549 cells assessed as downregulation of FANCD2 mRNA expression incubated for 48 hrs by RT-qPCR analysis; format: cell-based
[13] = biological target: T1, Poly [ADP-ribose] polymerase 1; assay: Inhibition of PARP-1 in human BT-549 cells assessed as downregulation of BRCA1 mRNA expression incubated for 48 hrs by RT-qPCR analysis; format: cell-based
[14] = biological target: T1, Poly [ADP-ribose] polymerase 1; assay: Inhibition of PARP-1 in human BT-549 cells assessed as downregulation of BRCA2 mRNA expression incubated for 48 hrs by RT-qPCR analysis; format: cell-based
[15] = biological target: T1, Poly [ADP-ribose] polymerase 1; assay: Inhibition of PARP-1 in human BT-549 cells assessed as downregulation of RAD51 mRNA expression incubated for 48 hrs by RT-qPCR analysis; format: cell-based
BT-549 [16] = assay: Induction of DNA damage in human BT-549 cells assessed as upregulation of gamma-H2AX level at 0.05 uM incubated for 48 hrs by immunoblotting analysis; format: functional, cell-based
[17] = biological target: T1, Poly [ADP-ribose] polymerase 1; assay: Inhibition of PARP-1 in human BT-549 cells assessed as downregulation of P-ATM expression at 0.05 uM incubated for 48 hrs by immunoblotting analysis; format: cell-based
[18] = biological target: T1, Poly [ADP-ribose] polymerase 1; assay: Inhibition of PARP-1 in human BT-549 cells assessed as downregulation of BRCA1 expression at 0.05 uM incubated for 48 hrs by immunoblotting analysis; format: cell-based
[19] = biological target: T1, Poly [ADP-ribose] polymerase 1; assay: Inhibition of PARP-1 in human BT-549 cells assessed as downregulation of RAD51 expression at 0.05 uM incubated for 48 hrs by immunoblotting analysis; format: cell-based
[20] = biological target: T1, Poly [ADP-ribose] polymerase 1; assay: Inhibition of PARP-1 in human BT-549 cells assessed as downregulation of P-ATM expression at 0.5 uM incubated for 48 hrs by immunoblotting analysis; format: cell-based
[21] = biological target: T1, Poly [ADP-ribose] polymerase 1; assay: Inhibition of PARP-1 in human BT-549 cells assessed as downregulation of BRCA1 expression at 0.5 uM incubated for 48 hrs by immunoblotting analysis; format: cell-based
[22] = biological target: T1, Poly [ADP-ribose] polymerase 1; assay: Inhibition of PARP-1 in human BT-549 cells assessed as downregulation of RAD51 expression at 0.5 uM incubated for 48 hrs by immunoblotting analysis; format: cell-based
BT-549 [23] = assay: Induction of DNA damage in human BT-549 cells assessed as increase in gamma-H2AX localization in nucleus at 0.125 uM incubated for 48 hrs by fluorescence confocal microscopic analysis; format: functional, cell-based
BT-549 [24] = assay: Induction of DNA damage in human BT-549 cells assessed as decrease in BRCA1 localization in nucleus at 0.125 uM incubated for 48 hrs by fluorescence confocal microscopic analysis; format: functional, cell-based
BT-549 [25] = assay: Induction of DNA damage in human BT-549 cells assessed as decrease in ubiquitin localization in nucleus at 0.125 uM incubated for 48 hrs by fluorescence confocal microscopic analysis; format: functional, cell-based
BT-549 [26] = assay: Induction of DNA damage in human BT-549 cells assessed as increase in polyubiquitination at 0.125 uM incubated for 48 hrs by fluorescence confocal microscopic analysis; format: functional, cell-based
BT-549 [27] = assay: Induction of DNA damage in human BT-549 cells assessed as decrease in polyubiquitination in nucleus at 0.125 uM incubated for 48 hrs by fluorescence confocal microscopic analysis; format: functional, cell-based
BT-549 [28] = assay: Induction in cell cycle arrest in human BT-549 cells assessed as downregulation of Cyclin A2 expression at 0.05 uM incubated for 48 hrs by Western blotting analysis; format: functional, cell-based
BT-549 [29] = assay: Induction in cell cycle arrest in human BT-549 cells assessed as downregulation of Cyclin A2 expression at 0.5 uM incubated for 48 hrs by Western blotting analysis; format: functional, cell-based
BT-549 [30] = assay: Induction in cell cycle arrest in human BT-549 cells assessed as downregulation of CDK1 expression at 0.05 uM incubated for 48 hrs by Western blotting analysis; format: functional, cell-based
BT-549 [31] = assay: Induction in cell cycle arrest in human BT-549 cells assessed as downregulation of CDK1 expression at 0.5 uM incubated for 48 hrs by Western blotting analysis; format: functional, cell-based
BT-549 [32] = assay: Induction in cell cycle arrest in human BT-549 cells assessed as upregulation of p21 expression at 0.05 uM incubated for 48 hrs by Western blotting analysis; format: functional, cell-based
BT-549 [33] = assay: Induction in cell cycle arrest in human BT-549 cells assessed as upregulation of p21 expression at 0.5 uM incubated for 48 hrs by Western blotting analysis; format: functional, cell-based
BT-549 [34] = assay: Induction of apoptosis in human BT-549 cells assessed as upregulation of cleaved caspase-3 expression incubated for 48 hrs by Western blotting analysis; format: functional, cell-based
BT-549 [35] = assay: Induction of apoptosis in human BT-549 cells assessed as upregulation of cleaved PARP expression incubated for 48 hrs by Western blotting analysis; format: functional, cell-based
BT-549 [36] = assay: Induction of apoptosis in human BT-549 cells assessed as increase in early apoptotic cells incubated for 48 hrs by Annexin V-FITC/PI staining based flow cytometric analysis; format: functional, cell-based
BT-549 [37] = assay: Induction of apoptosis in human BT-549 cells assessed as increase in late apoptotic cells incubated for 48 hrs by Annexin V-FITC/PI staining based flow cytometric analysis; format: functional, cell-based
BT-549 [38] = assay: Inhibition of colony formation in human BT-549 cells assessed as reduction in colony number incubated for 14 days by crystal violet staining based analysis; format: functional, cell-based; conditions: time 14.0 day
BT-549 [39] = assay: Inhibition of colony formation in human BT-549 cells assessed as reduction in colony size incubated for 14 days by crystal violet staining based analysis; format: functional, cell-based; conditions: time 14.0 day
[40] = biological target: T1, Poly [ADP-ribose] polymerase 1; assay: Inhibition of PARP-1 (unknown origin) assessed as fold change in inhibition using Femto-ECL as substrate preincubated for 2.7 hrs followed by substrate addition by chemiluminescence assay

Structure (SMILES): O=C(c1cc(Cc2n[nH]c(=O)c3ccccc23)ccc1F)N1CCN(C(=O)C2CC2)CC1 [OLAPARIB]
- IC50 (BT-549 [1]): 6610 nM
- IC50 (MCF7 [2]): 10600 nM
- IC50 (MDA-MB-231 [3]): > 30000 nM
- Activity (BT-549 [4]): Active
- Activity (BT-549 [5]): Active
- Activity (BT-549 [6]): 12.407

- IC50 [7]: 137 nM
- IC50 (20S proteasome): 60.9 nM
- inhibition [12]: Dose-Dependent Effect
- inhibition [13]: Dose-Dependent Effect
- inhibition [14]: Dose-Dependent Effect
- inhibition [15]: Dose-Dependent Effect
- inhibition [17]: Active
- inhibition [18]: Active
- inhibition [19]: Active
- inhibition [20]: Active
- inhibition [21]: Active
- inhibition [22]: Active
Structure (SMILES): CC(C)C[C@H](NC(=O)[C@H](CC(C)C)NC(=O)c1cc(Cc2n[nH]c(=O)c3ccccc23)ccc1F)B1O[C@@H]2C[C@@H]3C[C@@H](C3(C)C)[C@]2(C)O1
- IC50 (BT-549 [1]): 17.8 nM
- IC50 (MCF7 [2]): 49.5 nM
- IC50 (MDA-MB-231 [3]): 31.2 nM
- fold change (FC) [8]: 1
- fold change (FC) (ES-2): 1
- fold change (FC) (HEY): 1
- fold change (FC) (SK-OV-3): 1
- fold change (FC) (NCI-H1299): 1
- fold change (FC) (A549): 1
- fold change (FC) (PC-3): 1
- fold change (FC) (BT-549 [9]): 10
- fold change (FC) (MCF7 [10]): 10
- fold change (FC) (MDA-MB-231 [11]): 10
- Activity (BT-549 [16]): Active
- Activity (BT-549 [4]): Active
- Activity (BT-549 [23]): Active
- Activity (BT-549 [24]): Active
- Activity (BT-549 [25]): Active
- Activity (BT-549 [26]): Active
- Activity (BT-549 [27]): Active
- Activity (BT-549 [28]): Active
- Activity (BT-549 [29]): Active
- Activity (BT-549 [30]): Active
- Activity (BT-549 [31]): Active
- Activity (BT-549 [32]): Active
- Activity (BT-549 [33]): Active
- Activity (BT-549 [34]): Dose-Dependent Effect
- Activity (BT-549 [35]): Dose-Dependent Effect
- Activity (BT-549 [36]): Dose-Dependent Effect
- Activity (BT-549 [37]): Dose-Dependent Effect
- inhibition (BT-549 [38]): Dose-Dependent Effect
- inhibition (BT-549 [39]): Dose-Dependent Effect

- fold change (FC) [40]: 100
Structure (SMILES): CC(C)C[C@H](NC(=O)[C@H](CC(C)C)NC(=O)c1cc(Cc2nn(C)c(=O)c3ccccc23)ccc1F)B1O[C@@H]2C[C@@H]3C[C@@H](C3(C)C)[C@]2(C)O1
